Assay results: patent US11661420B2 (NANJING HEPO PHARMACEUTICAL CO., LTD, priority 2019, dated 2023)

Experiments:
[1] = system: HBV surface antigen (HBsAg); assay: Cryopreserved PHH assay, ELISA of hepatitis B surface antigen in culture supernatant; format: cell-based, type D HBV in human primary hepatocytes (PHH); conditions: Hepatitis B virus, 240 h, read-out: HBsAg EC50
Protocol: (§1) The inhibitory effect of the compounds on HBV was evaluated by real-time quantitative qPCR assay (real time-qPCR) to detect the HBV DNA content in human primary hepatocytes (PHH) culture supernatant, and ELISA to detect the hepatitis B surface antigen and e antigen content, the EC50 value of the compounds was used as an indicator; meanwhile, the cell viability was detected by CellTiter-Glo to evaluate the toxicity of the compounds to cells.
(§2) 3.1. On day 0, PHH (1.32×10^5 cells/well) was seeded into a 48-well plate and incubated overnight at 37° C., 5% CO2.
(§3) 3.2. On the first day, PHH was infected with type D HBV (concentrated from HepDE19 cell culture supernatant).
(§4) 3.3 On the second day, the test compound was diluted to 7 concentrations with 5-fold serial dilution. Reference compound Peg-IFN-α 2a, 7 concentrations with 3-fold serial dilution. Compounds with different concentrations were added to the culture wells, and the wells were double-duplicated wells. The final concentration of DMSO in the culture medium was 2%.
(§5) 3.4 On the 4th, 6th, and 8th day, the culture medium was replaced by a fresh culture medium containing the compound.
(§6) 3.5 After collecting the culture supernatant from the culture well on the 10th day, the cell viability was tested with CellTiter-Glo. A portion of the culture supernatant was collected for ELISA determination to detect the content of hepatitis B virus surface antigen and e antigen; a portion of the sample was collected for extract DNA using a high-throughput DNA purification kit, referring to the product instructions for the specific steps.
(§7) 3.7 ELISA determination of hepatitis B virus surface antigen and e antigen
(§8) The specific steps can be referred to the product manual, the steps are briefly described as follows: 50 μL of sample and standard was added to the reaction plate respectively, 50 μL of enzyme conjugate was added to each well, the mixture was shaken and mixed well, then kept in a warm bath at 37° C. for 60 minutes, the plate was washed with washing solution for 5 times, 50 μL of the luminescent substrate was added to each well, the mixture was mixed well, and the reaction was carried out in the dark at room temperature for 10 minutes, and finally the chemiluminescence intensity was detected with the instrument.
(§9) Calculation of the inhibition percentage of HBV DNA, HBV surface antigen and e antigen. % Inh.=(1−value of the sample/value of DMSO control)×100.

HBV DNA = assay: Cryopreserved PHH assay, real-time qPCR of HBV DNA in culture supernatant; format: cell-based, type D HBV in human primary hepatocytes (PHH); conditions: Hepatitis B virus, 240 h; PHH infected with type D HBV, supernatant day 10, qPCR
Protocol: as §1, §2, §3, §4, §5, §6
3.6 Quantitative PCR to detect the content of HBV DNA
The qPCR reaction mixture, sample and standard were added to the 384 well reaction plate. PCR reactions: 95° C., 10 min; 95° C., 15 sec, 60° C., 1 min, 40 cycles.
as §9

HBV e antigen (HBeAg) = assay: Cryopreserved PHH assay, ELISA of hepatitis B e antigen in culture supernatant; format: cell-based, type D HBV in human primary hepatocytes (PHH); conditions: Hepatitis B virus, 240 h, read-out: HBeAg EC50
Protocol: as §1, §2, §3, §4, §5, §6, §7, §8, §9

[2] = Cryopreserved PHH assay, cell viability by CellTiter-Glo; format: cell-based; conditions: human, cryopreserved primary human hepatocytes (PHH), day 10, CellTiter-Glo
Protocol: as §1, §2, §4, §5, §6
Calculation of the percentage of cell viability: % viability=the luminescence value of the sample/the luminescence value of the DMSO control×100.

| SMILES | EC50 [1] [µM] | EC50 (HBV DNA) [µM] | EC50 (HBV e antigen (HBeAg)) [µM] | CC50 at 8 days [2] [µM] |
| --- | --- | --- | --- | --- |
| CC1(C)N=C(c2nc(-c3ccc(C(N)=O)cc3)cs2)Nc2ccccc21 [Compound I-71, 4-(2-(4,4-dimethyl-1,4-dihydroquinazolin-2-yl)thiazol-4-yl)benzamide] | 0.0924 | 0.0316 | 0.0147 | > 50 |
| CC1(C)N=C(c2ncc(-c3ccc(C(=O)O)cc3)cn2)Nc2c(Cl)cccc21 [Compound I-49, 4-(2-(8-chloro-4,4-dimethyl-1,4-dihydroquinazolin-2-yl)pyrimidin-5-yl)benzoic acid] | > 50 | 10.9 | 41.3 | > 50 |
| CC1(C)N=C(c2nc(-c3ccc(C(=O)O)cc3)cs2)Nc2c(Br)cccc21 [Compound I-22, 4-(2-(8-bromo-4,4-dimethyl-1,4-dihydroquinazolin-2-yl)thiazol-4-yl)benzoic acid] | > 50 | 0.01 | 0.0038 | > 50 |
| CC1(C)N=C(c2nc(-c3ccc(C(=O)O)cc3)cs2)Nc2c(OC(F)(F)F)cccc21 [Compound I-65, 4-(2-(4,4-dimethyl-8-trifluoromethoxyl-1,4-dihydroquinazolin-2-yl)thiazol-4-yl)benzoic acid] | 0.0395 | 0.003 | 0.0033 | > 50 |
| O=C(O)c1ccc(-c2csc(-c3cc(=O)c4cccc(Cl)c4o3)n2)cc1 [Compound I-19, 4-(2-(8-chloro-4-oxo-4H-benzopyran-2-yl)thiazol-4-yl)benzoic acid] | 39.6 | 28.4 | ~15 | > 50 |
| CC1(C)N=C(c2nc(-c3ccc(C(=O)O)cc3)c[nH]2)Nc2ccccc21 [Compound I-54, 4-(2-(4,4-dimethyl-1,4-dihydroquinazolin-2-yl)-1H-imidazol-4-yl)benzoic acid] | 0.326 | 0.025 | 0.041 | > 50 |
| CC1(C)N=C(c2nc(-c3ccc(C(=O)O)cc3F)cs2)Nc2ccccc21 [Compound I-38, 4-(2-(4,4-dimethyl-1,4-dihydroquinazolin-2-yl)thiazol-4-yl)-3-flurobenzoic acid] | 0.092 | 0.016 | 0.012 | > 50 |
| CC1(C)N=C(c2nc(-c3ccc(-c4nnn[nH]4)cc3)cs2)Nc2ccccc21 [Compound I-72] | 17.5 | 8.09 | 8.05 | > 50 |
| O=C(O)C1CCN(c2ccc3c(=O)c4cccc(Cl)c4oc3c2)C1 (stereo not shown) [A, reference compound] | 9.93 | 0.576 | 6.88 | > 50 |
| CC1(C)N=C(c2nc(-c3ccc(C(=O)O)cc3)cs2)Nc2ccc(Cl)cc21 [Compound I-27, 4-(2-(6-chloro-4,4-dimethyl-1,4-dihydroquinazolin-2-yl)thiazol-4-yl)benzoic acid] | > 50 | 0.0167 | 0.0211 | > 50 |
| O=C(O)c1ccc(-c2csc(-c3cc(=O)c4cccc(Cl)c4[nH]3)n2)cc1 [Compound I-13, 4-(2-(8-chloro-4-oxo-1,4-dihydroquinolin-2-yl)thiazol-4-yl)benzoic acid] | > 50 | > 5 | > 5 | > 50 |
| CCC1(CC)N=C(c2nc(-c3ccc(C(=O)O)cc3)cs2)Nc2ccccc21 [Compound I-69, 4-(2-(4,4-diethyl-1,4-dihydroquinazolin-2-yl)thiazol-4-yl)benzoic acid] | 0.0563 | 0.0171 | 0.0113 | > 50 |
| O=C(O)c1ccc(-c2ccc(-c3cc(=O)c4cccc(Cl)c4o3)cc2)cc1 [Compound I-14, 4′-(8-chloro-4-oxo-4H-benzopyran-2-yl)-[1.1′-biphenyl)-4-carboxylic acid] | > 50 | > 20 | > 20 | > 50 |
